Data: US7517960B2, “Rat KCNQ5 voltage-gated potassium channel” (Wyeth, priority 2006, dated 2009)

Legend:
rat KCNQ5 = test: Two-electrode voltage clamp recording of rat KCNQ5 expressed in Xenopus laevis oocytes; format: cell-based; settings: homomeric rKCNQ5, cRNA-injected Xenopus laevis oocytes, recorded 48-72 hours after injection, FIG. 1B
Experimental: The electrodes were filled with 3 M KCl solution with resistances ranging from 0.5 to 1.5 MΩ.
For Examples 4 and 5, the cRNAs of rKONQ5 were injected directly into Xenopus laevis oocytes and the electrophysiological recordings were performed 48-72 hours after RNA injection using two-electrode voltage clamp recording (see Jow F and Wang K-W, Mol. Brain Res. 80:269-78 (2000) for methods). The electrodes were filled with 3 M KCI solution with resistances ranging from 0.5 to 1.5 MΩ. The bath solution pf pH 7.4 was a “ND96” containing the following (in mM): NaCI, 96; KCl, 2; CaCl21.8; MgCl2 1; HEPES, 10 (see FIG. 1A).

[1] = tested on: rat KCNQ5/KCNQ3 heteromeric channels; test: Two-electrode voltage clamp recording of rKCNQ5 co-expressed with KCNQ3 in Xenopus laevis oocytes; format: cell-based; settings: FIG. 2D
Text: There is a significant increase in the current amplitude of the rat KCNQ5/KCNQ3 heteromeric channels compared with that of the rKCNQ5 or rat KCNQ3 homomeric channels. The homomeric channels here refer to those with only one type of channel subunits expressed in Xenopus laevis oocytes. In this case, it refers to either rKCNQ5 alone (FIG. 2A) or rat KCNQ3 alone (FIG. 2B). Heteromeric channels means that the functional channels are composed of subunits of both rKCNQ5 and rat KCNQ3 (FIG. 2C). It is believed that those functional channels are composed of 4 such subunits. Therefore, the functional channels are “tetramers”. If the 4 subunits are the same type (e.g. 4 rKCNQ5 subunits, or 4 rat KCNQ3 subunits), there are known as “homotetramers”. If the 4 subunits in these functional channels are different (e.g., 2 rKCNQ5+2 rat KCNQ3, or 3 rat KCNQ5+1 rat KCNQ3, etc.), they are known as “heterotetramers”.
For Examples 4 and 5, the cRNAs of rKONQ5 were injected directly into Xenopus laevis oocytes and the electrophysiological recordings were performed 48-72 hours after RNA injection using two-electrode voltage clamp recording (see Jow F and Wang K-W, Mol. Brain Res. 80:269-78 (2000) for methods). The electrodes were filled with 3 M KCI solution with resistances ranging from 0.5 to 1.5 MΩ. […]

SMILES: O=C1c2ccccc2C(Cc2ccncc2)(Cc2ccncc2)c2ccccc21 [XE991]
- KCNQ5 channel current amplitude (rat KCNQ5): decreased the current amplitude
- current amplitudes of heterotetramer channels [1]: decrease
